Data reported in patent publication US20220348558A1, “INHIBITORS OF ENCEPHALITIC ALPHAVIRUSES” (priority 2019, published 2022).
Like-named read-outs stand apart in the source and are kept apart here.

How the values were obtained:
VEEV TC83 = experiment: microbe, parasite or virus in culture; type: cell-based; conditions: Venezuelan equine encephalitis virus, Vero 76, 48 h, read-out: VEEV TC83 EC50 nM
WEEV California = experiment: microbe, parasite or virus in culture; type: cell-based; conditions: Western equine encephalitis virus, Vero 76, 48 h, read-out: WEEV California EC50 nM
EEEV FL93-939 [1] = experiment: microbe, parasite or virus in culture; type: cell-based; conditions: Eastern equine encephalitis virus, Vero 76, 48 h, read-out: EEEV FL93-939 EC50
EEEV BeAr 436087 = experiment: microbe, parasite or virus in culture; type: cell-based; conditions: Eastern equine encephalitis virus, Vero 76, 48 h, read-out: EEEV BeAr 436087 EC50 nM
VEEV TrD = system: VEEV TrD; set-up: species or system BALB/C mice; conditions: mouse, in vivo
EEEV FL93-939 [2] = system: EEEV FL93-939; set-up: species or system C57BL/6 mice; conditions: mouse, in vivo

SMILES: COc1ccc(-n2c([C@H]3C[C@H](F)CN3)nc3c(C)cc([N+](=O)[O-])cc3c2=O)cc1 [Example 61, 2-((2R,4S)-4-fluoropyrrolidin-2-yl)-3-(4-methoxyphenyl)-8-methyl-6-nitroquinazolin-4 (3H)-one]
- EC50 (VEEV TC83): 1 to 50 nM
- EC50 (WEEV California): 51 to 150 nM
- EC50 (EEEV FL93-939 [1]): 51 to 150 nM
- EC50 (EEEV BeAr 436087): 51 to 150 nM
- melting point: 183.06 to 185.34 °C

SMILES: COc1ccc(-n2c([C@H]3CCCN3)nc3c(-c4ccc(F)nc4)cc([N+](=O)[O-])cc3c2=O)cc1F [Example 89, (R)-3-(3-fluoro-4-methoxyphenyl)-8-(6-fluoropyridin-3-yl)-6-nitro-2-(pyrrolidin-2-yl) quinazolin-4 (3H)-one]
- EC50 (VEEV TC83): 1 to 50 nM
- EC50 (WEEV California): 1 to 50 nM
- EC50 (EEEV FL93-939 [1]): 51 to 150 nM
- EC50 (EEEV BeAr 436087): 51 to 150 nM

SMILES: COc1ccc(-n2c([C@H]3CCCN3)nc3c(C)cc([N+](=O)[O-])cc3c2=O)cc1 [Example 55, (R)-3-(4-methoxyphenyl)-8-methyl-6-nitro-2-(pyrrolidin-2-yl) quinazolin-4 (3H)-one]
- EC50 (VEEV TC83): 1 to 50 nM
- EC50 (WEEV California): 1 to 50 nM
- EC50 (EEEV FL93-939 [1]): 51 to 150 nM
- EC50 (EEEV BeAr 436087): 51 to 150 nM
- day 14 % survival (VEEV TrD): 100%
- survival rate (VEEV TrD; 12 mg/kg/day): 75%
- survival rate (VEEV TrD; 24 mg/kg/day): 75%
- survival rate (VEEV TrD; 48 mg/kg/day): 100%
- % survival on day 21 (EEEV FL93-939 [2]; 12 mg/kg/day): 30%
- % survival on day 21 (EEEV FL93-939 [2]; 25 mg/kg/day): 60%
- % survival on day 21 (EEEV FL93-939 [2]; 50 mg/kg/day): 70%

SMILES: COc1ccc(-n2c([C@H]3C[C@H](F)CN3)nc3c(-c4cccnc4)cc([N+](=O)[O-])cc3c2=O)cc1 [Example 86, 2-((2R,4S)-4-fluoropyrrolidin-2-yl)-3-(4-methoxyphenyl)-6-nitro-8-(pyridin-3-yl) quinazolin-4 (3H)-one]
- EC50 (VEEV TC83): 1 to 50 nM
- EC50 (WEEV California): 1 to 50 nM
- EC50 (EEEV FL93-939 [1]): 51 to 150 nM
- EC50 (EEEV BeAr 436087): 51 to 150 nM

SMILES: COc1ccc(-n2c([C@@H]3CCCN3C)nc3c(C)cc([N+](=O)[O-])cc3c2=O)cc1 [Example 58, (S)-3-(4-methoxyphenyl)-8-methyl-2-(1-methylpyrrolidin-2-yl)-6-nitroquinazolin-4 (3H)-one]
- EC50 (VEEV TC83): 1 to 50 nM
- EC50 (WEEV California): 1 to 50 nM
- EC50 (EEEV FL93-939 [1]): 51 to 150 nM
- EC50 (EEEV BeAr 436087): 51 to 150 nM

SMILES: COc1ccc(-n2c([C@H]3CCCN3C)nc3c(C)cc([N+](=O)[O-])cc3c2=O)cc1 [Example 57, (R)-3-(4-methoxyphenyl)-8-methyl-2-(1-methylpyrrolidin-2-yl)-6-nitroquinazolin-4 (3H)-one]
- EC50 (VEEV TC83): 51 to 150 nM
- EC50 (WEEV California): 151 to 500 nM
- EC50 (EEEV FL93-939 [1]): 51 to 150 nM
- EC50 (EEEV BeAr 436087): 51 to 150 nM
